Like-named read-outs stand apart in the source and are kept apart here.
How the values were obtained:
SOS1 = target: T1, SOS1 (Homo sapiens, UniProt Q07889); experiment: Bodipy-FL-GTP Association Assay (SOS1-mediated exchange of KRAS-4B:GDP to KRAS-4B:GTP); format: biochemical; conditions: SOS1-mediated BODIPY FL GTP exchange on KRAS-4B, 22° C.
T1 construct: SOS1 (Cytoskeleton Inc., Cat. CS-GE02); purchased Cytoskeleton Inc. CS-GE02
T1 sequence (Q07889 564-1049 limits assumed): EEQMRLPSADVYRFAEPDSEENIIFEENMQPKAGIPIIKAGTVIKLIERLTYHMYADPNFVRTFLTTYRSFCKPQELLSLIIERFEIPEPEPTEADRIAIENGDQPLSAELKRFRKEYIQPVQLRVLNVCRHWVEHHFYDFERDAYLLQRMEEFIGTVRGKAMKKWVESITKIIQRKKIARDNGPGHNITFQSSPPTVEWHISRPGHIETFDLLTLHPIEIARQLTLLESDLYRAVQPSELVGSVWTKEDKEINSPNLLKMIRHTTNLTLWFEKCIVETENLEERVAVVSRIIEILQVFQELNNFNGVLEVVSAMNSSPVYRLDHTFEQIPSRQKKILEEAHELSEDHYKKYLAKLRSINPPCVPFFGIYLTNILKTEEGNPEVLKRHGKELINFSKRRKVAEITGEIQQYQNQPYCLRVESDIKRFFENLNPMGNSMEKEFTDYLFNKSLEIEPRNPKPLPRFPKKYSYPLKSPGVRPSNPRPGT
Protocol: A low IC50 value for a given compound is indicative of high potency of said compound in inhibiting the guanine nucleotide exchange factor (GEF) activity of SOS1 on KRAS-4B in this assay setting.
Reagents: BODIPY FL GTP (ThermoFisher Scientific, Cat. G12411); KRAS4-B (Cytoskeleton Inc., Cat. CSRS03); SOS1 (Cytoskeleton Inc., Cat. CS-GE02); 2×Assay Buffer: 40 mM Tris-HCl, pH 7.5; 100 mM NaCl; 20 mM MgCl2; 0.1 mg/mL BSA; 0.02% NP-40
Assay Procedure: Test compounds were dissolved in DMSO to create 20 mM master stocks. The stocks were diluted in a 3× dilution series in 100% DMSO to achieve 100× compound stocks. A 1 μl spot of each test compound stock was delivered to two adjacent wells of a 96-well assay plate prior to running the assay. Reaction Mix preparation: The following were mixed in order at room temperature to obtain the “Reaction Mix” (5.75 mL 2× Exchange Buffer; 3.22 mL MilliQ ddH2O; 3 μL 5 mM BODIPY FL GTP; 230 μL 50 μM KRAS-4B; 9.203 mL Total volume. Reaction initiation: 80 μL of Reaction Mix was pipetted into each well of a half-area black 96-well plate (Corning, Cat. 3686) containing either a 1 μL spot of DMSO or a 1 μL spot test compound at the concentrations listed above. 20 μL of 1 μM SOS1 was then added to each well to initiate the reaction. For the no GEF control wells this was replaced with 1× exchange buffer. Kinetic measurement: The reaction was monitored in a SpectraMax M2 Microplate Reader (Molecular Devices) under the following protocol: 5 second rapid circular mixing before first read; 61 readings, 30 seconds apart; Assay temperature: 22° C.; Excitation wavelength: 485 nm; Emission wavelength: 513 nm. Data Analysis: The Vmax values for the SOS1-mediated BODIPY FL GTP exchange curves in the presence of test compounds were normalized to the most dilute test sample columns or DMSO only control wells to give the % Activity for each concentration of test compound. Plots of % Activity vs. the Log 10 of the compound concentration were fit by non-linear regression to a 4-parameter logistic model.

[1] = target: T2, SOS1 catalytic domain (residues 564-1049) (Homo sapiens, UniProt Q07889); experiment: Mode of Action Assay: inhibition of SOS1 nucleotide exchange activity (SOS1 TR-FRET IC50 Assay)
T2 sequence (Q07889 564-1049): T1 sequence (Q07889 564-1049 limits assumed)
Protocol: The purpose of this assay was to characterize the inhibitory activity of compounds on SOS1 nucleotide exchange of KRAS. Data was reported as IC50 values based on the TR-FRET signal.
Note—the following protocol describes a procedure for monitoring the inhibition of SOS1 nucleotide exchange activity of wild-type KRAS in response to a compound of the invention.
The SOS1/compound mixture was incubated at room temperature with constant mixing on an orbital shaker for 20 minutes to allow the reaction to reach equilibrium. […] This mixture was prepared immediately before addition to the SOS1/compound mixture to prevent intrinsic nucleotide exchange. Then 5 μL of the pre-incubated SOS1/compound mixture and 7.5 μL of the KRAS mixture were added sequentially in a 384-well low volume black round bottom plate and incubated at room temperature with constant shaking for 30 minutes. Time-resolved fluorescence was measured on a PerkinElmer Envision plate reader.
Three replicates were performed for each compound. Data were normalized by the following: (Positive control−Sample signal)/(Positive control−negative control)*100. The data were fit using a four-parameter logistic fit.

[2] = target: T2, SOS1 catalytic domain (residues 564-1049); experiment: Potency Assay: binding affinity to SOS1 using Surface Plasmon Resonance (SPR); set-up: SOS1 catalytic domain (residues 564-1049) immobilized on a sensor chip; conditions: immobilized SOS1 catalytic domain (residues 564-1049), read-out: SOS1 SPR Equilibrium Kd
How it was run: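 Avi-tagged SOS1 catalytic domain captured on streptavidin chip (~6000 RU) in 0.01 M HEPES, 0.15 M NaCl, 0.05% P20. Compound dilution series flowed at 50 μL/min for association, then buffer for dissociation, with double reference subtraction. Kd derived from end-of-association binding response plotted against concentration.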

[3] = system: PC-9 cells (EGFR Ex19Del); experiment: Potency Assay: pERK (SOS1 pERK IC50 Assay, AlphaLISA SureFire Ultra p-ERK1/2); format: cell-based; conditions: Homo sapiens, read-out: SOS1 pERK IC50
How it was run: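 PC-9 (EGFR Ex19Del) cells plated overnight, then treated 1 h at 37° C. with 10-point 3-fold dilutions (top 10 μM final) in duplicate. Lysate pERK1/2 measured by AlphaLISA SureFire Ultra; IC50 from 4-parameter sigmoidal fit.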

[4] = PC-9 cells (EGFR Ex19Del), 1 hour incubation, AlphaLISA p-ERK1/2

| Structure (SMILES) | IC50 (SOS1) | IC50 [1] | Kd [2] | IC50 [3, 4] | IC50 ([3]; PC-9, 1 h) |
| --- | --- | --- | --- | --- | --- |
| COc1nc2c(c(N[C@H](C)c3cc(N)cc(C(F)(F)F)c3)n1)CN(C(=O)N1CCOCC1)C2 [Example 14] | < 1000 nM |  |  |  |  |
| Cc1nc2c(c(N[C@H](C)c3cc(N)cc(C(F)(F)F)c3)n1)CN(CC1CCOC1)C2 (stereo partly drawn) [Example 13] | 1000 to 5000 nM |  |  |  |  |
| C[C@@H](Nc1nc(Cl)nc2c1CN([C@H]1CC[C@H](C(=O)N(C)C)CC1)C2)c1cc(N)cc(C(F)(F)F)c1 [Example 19] | 1000 to 5000 nM |  |  |  |  |
| C[C@@H](Nc1nc(Cl)nc2c1CN(C(=O)N1CCOCC1)C2)c1cc(N)cc(C(F)(F)F)c1 [Example 1, N-[(1R)-1-[3-amino-5-(trifluoromethyl)phenyl]ethyl]-2-chloro-6-(morpholine-4-carbonyl)-5H,6H,7H-pyrrolo[3,4-d]pyrimidin-4-amine] | < 1000 nM |  |  |  |  |
| C[C@@H](Nc1nc(Cl)nc2c1CN(CC1CCOC1)C2)c1cc(N)cc(C(F)(F)F)c1 (stereo partly drawn) [Example 20] | < 1000 nM |  |  |  |  |
| C[C@@H](Nc1nc(Cl)nc2c1CN([C@H]1CC[C@@H](O)CC1)C2)c1cc(N)cc(C(F)(F)F)c1 [Example 8, cis-4-(4-{[(1R)-1-[3-amino-5-(trifluoromethyl)phenyl]ethyl]amino}-2-chloro-5H,6H,7H-pyrrolo[3,4-d]pyrimidin-6-yl)cyclohexan-1-ol] | > 5000 nM |  |  |  |  |
| C[C@@H](Nc1nc(Cl)nc2c1CN(C(=O)c1ccncn1)CC2)c1cc(N)cc(C(F)(F)F)c1 [Example 233] |  | > 1000 nM | > 400 nM | > 1000 nM |  |
| C[C@@H](Nc1nc(Cl)nc2c1CN(C(=O)c1cccc(OC3CCOCC3)n1)C2)c1cc(N)cc(C(F)(F)F)c1 [Example 83] |  | > 1000 nM | > 400 nM | < 1000 nM |  |
| C[C@@H](Nc1nc(Cl)nc2c1CN(C(=O)N1CCOCC1)C2)c1cccc(C(F)F)c1Br [Example 528, N-[(1R)-1-[2-bromo-3-(difluoromethyl)phenyl]ethyl]-2-chloro-6-(morpholine-4-carbonyl)-5H,6H,7H-pyrrolo[3,4-d]pyrimidin-4-amine] |  | < 1000 nM | > 400 nM |  | < 1000 nM |
| Cc1nc2c(c(N[C@H](C)c3cc(N)cc(C(F)(F)F)c3)n1)CN(S(=O)(=O)N1CCOCC1)C2 [Example 37, (R)—N-(1-(3-amino-5-(trifluoromethyl)phenyl)ethyl)-2-methyl-6-(morpholinosulfonyl)-6,7-dihydro-5H-pyrrolo[3,4-d]pyrimidin-4-amine] |  | < 1000 nM | < 400 nM | < 1000 nM |  |
| C[C@@H](Nc1nc(Cl)nc2c1CN(C(=O)N1C[C@H]3CNC[C@H]3C1)C2)c1cccc(C(F)(F)F)c1 [Example 380] |  | < 1000 nM | < 400 nM | > 1000 nM |  |
| C[C@@H](Nc1nc(OC(F)(F)F)nc2c1CN(C(=O)N1CCOCC1)C2)c1cc(N)cc(C(F)(F)F)c1 [Example 126, N-[(1R)-1-[3-amino-5-(trifluoro-methyl)phenyl]ethyl]-6-(morpholine-4-carbonyl)-2-(trifluoro-methoxy)-5H,6H,7H-pyrrolo-[3,4-d]pyrimidin-4-amine] |  | > 1000 nM | > 400 nM | < 1000 nM |  |
| C[C@@H](Nc1nc(Cl)nc2c1CN(C(=O)N1CCOC(c3ccncc3)C1)C2)c1cc(N)cc(C(F)(F)F)c1 (stereo partly drawn) [Example 145] |  | < 1000 nM | < 400 nM | < 1000 nM |  |
| COC1(C(=O)N2Cc3nc(Cl)nc(N[C@H](C)c4cccc5c4OCC5(F)F)c3C2)CCOCC1 [Example 490] |  | < 1000 nM | < 400 nM | < 1000 nM |  |
| CC(Nc1nc(Cl)nc2c1CN(C(=O)N1CCOCC1)C2)c1cccc(C(F)(F)CO)c1 (stereo not drawn) [Example 171, [2-chloro-4-[1-[3-(1,1-difluoro-2-hydroxy-ethyl)phenyl]ethylamino]-5,7-dihydropyrrolo[3,4-d]pyrimidin-6-yl]-morpholino-methanone] |  | < 1000 nM | < 400 nM | < 1000 nM |  |
| C[C@@H](Nc1nc(Cl)nc2c1CN(C(=O)C1CCN1)C2)c1cccc(C(F)F)c1F (stereo partly drawn) [Example 286] |  | < 1000 nM | < 400 nM | < 1000 nM |  |
| C[C@@H](Nc1nc(Cl)nc2c1CN(C(=O)CN1CCOCC1)C2)c1cccc(C(F)F)c1F [Example 292] |  | < 1000 nM | < 400 nM | < 1000 nM |  |
| C[C@@H](Nc1ncnc2c1CN(C(=O)N1CCOCC1)C2)c1cccc(C(F)F)c1F [Example 389] |  | < 1000 nM | < 400 nM | > 1000 nM |  |
| C[C@@H](Nc1nc(Cl)nc2c1CN(C(=O)N1CC3CCC(C1)N3C)C2)c1cccc(C(F)F)c1F [Example 429] |  | < 1000 nM | < 400 nM | < 1000 nM |  |
| COc1cc(C(=O)N2CCc3nc(Cl)nc(N[C@H](C)c4cc(N)cc(C(F)(F)F)c4)c3C2)nc(OC)n1 [Example 229] |  | > 1000 nM | > 400 nM | > 1000 nM |  |
| C[C@@H](Nc1nc(Cl)nc2c1CN(C(=O)N1C[C@H]3C[C@@H]1CN3)C2)c1cccc(C(F)F)c1F [Example 406] |  | < 1000 nM | < 400 nM | < 1000 nM |  |
| C[C@@H](Nc1nc(Cl)nc2c1CN(C(=O)N1CCS(=O)(=O)CC1)C2)c1cc(N)cc(C(F)(F)F)c1 [Example 148] |  | < 1000 nM | < 400 nM | < 1000 nM |  |
| C[C@@H](Nc1nc(Cl)nc2c1CN(C(=O)N1CCNc3ncccc31)C2)c1cccc(C(F)(F)F)c1 [Example 370] |  | < 1000 nM | < 400 nM | < 1000 nM |  |
| C[C@@H](Nc1nc(Cl)nc2c1CN(C(=O)C1CCNCC1)C2)c1cc(N)cc(C(F)(F)F)c1 [Example 270] |  | < 1000 nM | < 400 nM | > 1000 nM |  |
| C[C@@H](Nc1nc(Cl)nc2c1CN(C(=O)C1CCN(C3COC3)CC1)C2)c1cccc(C(F)F)c1F [Example 336] |  | < 1000 nM | < 400 nM | > 1000 nM |  |
| C[C@@H](Nc1nc(Cl)nc2c1CN(C(=O)C1C3COCC31)C2)c1cc(N)cc(C(F)(F)F)c1 (stereo partly drawn) [Example 94] |  | < 1000 nM | < 400 nM | < 1000 nM |  |
| C[C@@H](Nc1nc(Cl)nc2c1CN(C(=O)C1(F)CNC1)C2)c1cc(N)cc(C(F)(F)F)c1 [Example 263] |  | < 1000 nM | < 400 nM | < 1000 nM |  |
| C[C@@H](Nc1nc(Cl)nc2c1CN(C(=O)N1CCOCC1)C2)c1cccc(C(F)(F)C2CNCCO2)c1 (stereo partly drawn) [Example 484, 2-chloro-N-[(1R)-1-{3-[difluoro(morpholin-2-yl)methyl]phenyl}ethyl]-6-(morpholine-4-carbonyl)-5H,6H,7H-pyrrolo[3,4-d]pyrimidin-4-amine] |  | < 1000 nM | < 400 nM |  | < 1000 nM |

From US20230096028A1, “BICYCLIC HETEROCYCLYL COMPOUNDS AND USES THEREOF” (Revolution Medicines, Inc., priority 2019, published 2023)
